Test results published in patent US5272141A, “Contraceptive and menstrual cycle controlling drug having oncostatic therapeutic properties for treatment of mammary tumors and melanomas, and method therefor” (priority 1990, dated 1993).
Entries after “also recorded” stand apart in the source; their conditions may differ. Read-outs that look alike come from different tables or passages of the source.

How the values were obtained:
[1] = system: female patients; test: Clinical experimentation of associations used as contraceptives in eighty two female patients; assay type: in vivo, human; details: doses lower than those of melatonin
Description: With respect to the clinic experimentation, preliminary tests has been carried out on eighty two female patients, having an age between 18 and 46 years, with the following associations of the disclosed substances:
a) melatonin and norethisterone with doses per day of respectively 100-200 mg and 0.30-0.50 mg:
b) melatonin and 1-norgestrel with doses per day of respectively 100-200 mg and 0.08-0.16 mg;
c) 2-iodomelationin and norethisterone with doses per day of respectively 20-40 mg and 0.30-0.50 mg; mg;
d) 2-iodomelatonin and norgestrel with doses per day of respectively 20-40 mg and 0.35-0.80 mg;
e) 2-iodomelatonin and 1-norgestrel with doses per day of respectively 20-40 mg and 0.08-0.16 mg;
f) 2-bromomelatonin and norethisterone with doses per day of respectively 25-50 mg and 0.30-0.50 mg;
g) 2-bromomelatonin and norgestrel with doses per day of respectively 20-40 mg and 0.35-0.80.
h) 2-bomromelatonin and 1-norgestrel with doses pro die of respectively 20-40 mg and 0.08-0.16 mg.

[2] = Biological activity in vivo and in vitro in respect to melatonin; details: both in vivo and in vitro
[3] = system: ovarian cell line SK-OV-3; test: Growth inhibition of ovarian cell line SK-OV-3; assay type: cell-based, human; details: in vitro
[4] = system: ovarian cell line JA; test: Growth inhibition of ovarian cell line JA; assay type: cell-based, human; details: in vitro
[5] = system: bladder carcinoma RT-112; test: Growth inhibition of bladder carcinoma RT-112; assay type: cell-based, human; details: in vitro
[6] = system: mammary carcinoma MCF-7 cells; test: Growth inhibition of mammary carcinoma MCF-7 cells; assay type: cell-based, human; details: in vitro
[7] = system: primary cultures of metastatic nodules of a human malignant melanoma; test: Growth inhibition in primary cultures of metastatic nodules of a human malignant melanoma; assay type: cell-based; details: in vitro
Text: (§1) In our studies and experiments we have obtained an inhibition greater than 75% of the growth in primary cultures of metastatic nodules of a human malignant melanoma upon treatment in "vitro" with 2-iodomelatonin and 2-bromomelatonin and in primary cultures from different human melanomas, a growth inhibition has been obtained in 6 of 11 patients studied.

[8] = system: primary cultures from different human melanomas; test: Growth inhibition in primary cultures from different human melanomas; assay type: cell-based
Text: as §1

[9] = system: B-16 melanoma; test: Lung metastasis and local tumor growth in mice implanted with B-16 melanoma; assay type: in vivo
Text: (§2) The results obtained in our laboratories, however, have demonstered that 2-iodomelatonin and 2-bromomelatonin cause a reduction both in the number of the lung metastasis and of the local growth of tumors in mice inplanted with B-16 melanoma or MS-2 fibrosarcoma cells.

[10] = system: MS-2 fibrosarcoma cells; test: Lung metastasis and local tumor growth in mice implanted with MS-2 fibrosarcoma cells; assay type: in vivo
Text: as §2

[11] = system: normal tissues; test: Binding in normal tissues
[12] = system: neoplastic tissues; test: Binding in neoplastic tissues; details: compared with normal tissues
[13] = system: tumors; test: Long term treatment: arrest and partial regression of tumors in human; assay type: in vivo; details: in some cases
[14] = system: cellular membranes of melanoma; test: Binding to cellular membranes of melanoma
[15] = system: cellular membranes of mammary gland cancer; test: Binding to cellular membranes of mammary gland cancer
[16] = system: cellular membranes of cellular lines infected with oncogenic viruses; test: Binding to cellular membranes of cellular lines infected with oncogenic viruses
[17] = Hematic, biochemical, electrophoretic, organ, bone marrow and histological toxicity tests; details: in vivo
Text: The haematochemical, electrophoretic tests, and the tests for determining the status and weight of organs, bone marrow, and the hystological tests have not shown any particular toxicity and, based on these observations, which show the low toxicity of the individual compounds and associations, a favourable opinion has been released about the starting of the clinical experimentation.

[18] = Acute toxicity in rats; details: rat, in vivo; for LD50: po, per os, read-out: DL50 (the source's name)
Description: (§3) In the specific case of melatonin, acute
1) Rats, intraperitoneally
2) Rats, per os DL50 = greater than
(§4) (observation period 14 days)
the symbol DL50 means the amount of material which kills 50% of the
(§5) With respect to the toxicity of 2-iodomelatonin and 2-bromomelatonin, the acute toxicity tests have been carried out:
1) in rats per os: DL50 greater than 200 mg/Kg

[19] = Acute toxicity in mice; details: mouse, in vivo, read-out: DL50 (the source's name)
Description: as §5
2) in mice per os and intraperitoneally: DL50 greater than 100 mg/Kg.

[20] = system: human neoplastic cell lines; test: Oncostatic effects in vitro; assay type: cell-based
[21] = system: tumors; test: Oncostatic effects in vivo
[22] = system: stimulated dopamine release in the retina; details: cited from earlier work
[23] = system: cell cultures, neoplasms and hyperplasias; details: humans; cited from earlier work
[24] = system: cell cultures, neoplasms and hyperplasias; details: laboratory animals; cited from earlier work
[25] = system: preventing undesired pregnancies; details: cited from earlier work
[26] = system: estrogen receptor; test: Estrogen receptor number in MCF-7; assay type: cell-based, human
[27] = in vivo; set-up: species or system rabbits; details: rabbit, iv
Text: as §3
3) rabbits, intravenously
as §4
(§6) the symbol DL50 means the amount of material which kills 50% of the […]

[28] = Sub-acute toxicity in rats; details: rat, in vivo, sc, subcutaneously, observation period 25 days, read-out: DL50
Text: and the sub-acute toxicity in:
(observation period 25 days).
as §6

[29] = system: human contraception; details: comparatively high doses; cited from earlier work

Q: What does the source list for `COc1ccc2[nH]c(I)c(CCNC(C)=O)c2c1` [2-iodomelatonin, N-acetyl-2-iodo-5-methoxytriptamine]?
A: dose reduction relative to melatonin (times lower) [1]: five to ten; activity relative to that of melatonin (times higher) [2]: seven to ten; inhibition of the growth [3]: dose-dependant inhibition of the growth; inhibition of the growth [4]: dose-dependant inhibition of the growth; inhibition of the growth [5]: dose-dependant inhibition of the growth; inhibition of the growth [6]: dose-dependant inhibition of the growth; also recorded: inhibited the growth of the cellular lines MCF-7 in a dose dependant manner; inhibition of the growth [7]: greater than 75%; growth inhibition obtained (patients responding of patients studied) [8]: 6 of 11; local growth of tumors [9]: reduction; number of the lung metastasis [9]: reduction; local growth of tumors [10]: reduction; number of the lung metastasis [10]: reduction; binding [11]: high affinity, saturable and specific; binding affinity [12]: much lower; tumor arrest and regression [13]: arrest and partial regression of tumors; binding to cellular membranes [14]: bind to the cellular membranes; binding to cellular membranes [15]: bind to the cellular membranes; binding to cellular membranes [16]: bind to the cellular membranes; toxicity in hematic, biochemical, electrophoretic, organ, bone marrow and histological tests [17]: have not shown any particularly toxicity; LD50 [18]: > 200 mg/kg; LD50 ([19]; ip, intraperitoneally): > 100 mg/kg; LD50 ([19]; po, per os): > 100 mg/kg; oncostatic effects [20]: Powerful oncostatic effects; oncostatic effects [21]: Powerful oncostatic effects; inhibition of stimulated dopamine release [22]: potent inhibitors

Q: Which binding [23] does the source give for `COc1ccc2[nH]c([125I])c(CCNC(C)=O)c2c1` [2-(125I)-iodomelatonin] here?
A: specific and saturable binding

Q: What about the binding [24] of the same compound?
A: specific and saturable binding

Q: Which “contraceptive results compared with norethisterone mini-pill” value ([25]; reduced doses (0.08-0.16 mg)) does the source give for `C#C[C@]1(O)CC[C@H]2[C@@H]3CCC4=CC(=O)CC[C@@H]4[C@H]3CC[C@@]21CC` [1-norgestrel] here?
A: better results

Q: For `COc1ccc2[nH]cc(CCNC(C)=O)c2c1` [melatonin, reference compound], which estrogen receptor number [26] is on record?
A: temporarily caused an increase of the estrogen receptor number

Q: What about the binding [11] of the same compound?
A: high affinity, saturable and specific

Q: What about the binding affinity [12] of the same compound?
A: much lower

Q: What about the “tumor arrest and regression” value [13] of the same compound?
A: arrest and partial regression of tumors

Q: And the “toxicity in hematic, biochemical, electrophoretic, organ, bone marrow and histological tests” value [17]?
A: have not shown any particularly toxicity

Q: What about the LD50 at 336 h ([18]; ip, intraperitoneally, observation period 14 days, read-out: DL50) of the same compound?
A: 462 mg/kg

Q: And the LD50 ([18]; observation period 14 days)?
A: > 800 mg/kg

Q: What about the LD50 at 336 h [27] of the same compound?
A: 394 mg/kg

Q: And the LD50 at 600 h [28]?
A: > 192 mg/kg

Q: What about the “dose required to express contraceptive action” value [29] of the same compound?
A: 100 to 200 mg

Q: What about the “inhibition of stimulated dopamine release” value [22] of the same compound?
A: potent inhibitors of stimulated dopamine release in this organ, very much like melatonin

Q: Which “dose reduction relative to melatonin (times lower)” value [1] does the source give for `COc1ccc2[nH]c(Br)c(CCNC(C)=O)c2c1` [2-bromomelatonin, N-acetyl-2-bromo-5-methoxytriptamine] here?
A: five to ten

Q: What about the “activity relative to that of melatonin (times higher)” value [2] of the same compound?
A: seven to ten

Q: And the “inhibition of the growth” value [3]?
A: dose-dependant inhibition of the growth

Q: And the “inhibition of the growth” value [4]?
A: dose-dependant inhibition of the growth

Q: What about the “inhibition of the growth” value [5] of the same compound?
A: dose-dependant inhibition of the growth

Q: And the “inhibition of the growth” value [6]?
A: dose-dependant inhibition of the growth; also recorded: inhibited the growth of the cellular lines MCF-7 in a dose dependant manner

Q: What about the “inhibition of the growth” value [7] of the same compound?
A: greater than 75%

Q: And the “growth inhibition obtained (patients responding of patients studied)” value [8]?
A: 6 of 11

Q: And the “local growth of tumors” value [9]?
A: reduction

Q: What about the “number of the lung metastasis” value [9] of the same compound?
A: reduction

Q: And the “local growth of tumors” value [10]?
A: reduction

Q: And the “number of the lung metastasis” value [10]?
A: reduction

Q: And the binding [11]?
A: high affinity, saturable and specific

Q: And the binding affinity [12]?
A: much lower

Q: What about the “tumor arrest and regression” value [13] of the same compound?
A: arrest and partial regression of tumors

Q: And the “binding to cellular membranes” value [14]?
A: bind to the cellular membranes

Q: And the “binding to cellular membranes” value [15]?
A: bind to the cellular membranes

Q: What about the “binding to cellular membranes” value [16] of the same compound?
A: bind to the cellular membranes

Q: And the “toxicity in hematic, biochemical, electrophoretic, organ, bone marrow and histological tests” value [17]?
A: have not shown any particularly toxicity

Q: And the LD50 [18]?
A: > 200 mg/kg

Q: And the LD50 ([19]; ip, intraperitoneally)?
A: > 100 mg/kg

Q: And the LD50 ([19]; po, per os)?
A: > 100 mg/kg

Q: And the oncostatic effects [20]?
A: Powerful oncostatic effects

Q: What about the oncostatic effects [21] of the same compound?
A: Powerful oncostatic effects

Q: And the “inhibition of stimulated dopamine release” value [22]?
A: potent inhibitors

Q: With `C#C[C@]1(O)CC[C@H]2[C@@H]3CCC4=CC(=O)CC[C@@H]4[C@H]3CC[C@@]21C` [Norethisterone, norethisterone] as the compound, how does the undesired pregnancies ([25]; mini-pill, alone) read?
A: about 2.35%
